{
  "source": "paper PMC5094908",
  "about": "(Journal of applied toxicology : JAT, 2016)",
  "key": {"[1]": {"test_system": "SH-SY5Y", "details": "cited from earlier work"}, "[2]": {"test_system": "LUHMES and dLUHMES cells"}},
  "data": [
    {"smiles": "O=c1c(O)c(-c2ccc(O)c(O)c2)oc2cc(O)cc(O)c12", "note": "[QRC, Quercetin]", "values": [
      {"measurement": "In vitro neural selectivity (effect reported in SH-SY5Y)", "setting": "[1]", "value": "Toxic or protective in SH- SY5Y ([Ossola et al., 2008])"},
      {"measurement": "cytotoxic sensitivity ([ATP] IC50) of LUHMES and/or dLUHMES relative to the other cell lines", "setting": "[2]", "value": "more sensitive than the other cell lines"}
    ]}
  ]
}
